This note sets out measurements from PubChem BioAssay (NCI).

Test systems include XF 498 CNS; LXFL 529 NSCLC; SNB-78 CNS; KM20L2 colon; DLD-1 colon; HOP-18 NSCLC; RXF-631 renal; P388 leukemia; SN12K1 renal; P388/ADR leukemia.
Test in all cases: NCI tumour cell line growth inhibition, 48 h

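How tested: cells in 96-well plates exposed to compound for 48 hours at five concentrations. GI50 = concentration required for 50% inhibition of growth. TGI: concentration producing complete growth inhibition.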

On to `COCOC1CCCC[C@@]1(OCCOCCO[C@@]1(c2ccccc2)CCCC[C@H]1OCOC)c1ccccc1` (some centres undefined), for which the TGI in the test with XF 498 CNS, in the test on LXFL 529 NSCLC, in the test with SNB-78 CNS, in the test with KM20L2 colon, in the test with DLD-1 colon and in the test with HOP-18 NSCLC was over 100 µM each time.

With `COc1ccc(/C(C=O)=C(\Cl)c2ccc(OC)c(OC)c2)cc1`, the TGI in the test with XF 498 CNS is 50.2 µM; with LXFL 529 NSCLC, over 100 µM; in the test with RXF-631 renal, over 100 µM; in the test with SNB-78 CNS it was over 100 µM; in the test with KM20L2 colon it was over 100 µM; in the test on DLD-1 colon, over 100 µM. In addition, the TGI with HOP-18 NSCLC is over 100 µM.

On to `NC1CCC2(O)c3ccccc3C2C1` (centres undefined), for which the TGI in the test with XF 498 CNS, with LXFL 529 NSCLC, in the test with SNB-78 CNS, with KM20L2 colon and in the test with HOP-18 NSCLC was over 100 µM each time.

For the molecule `O=C(O)C1CCC(=O)N1C(=O)COc1cc(Cl)c(Cl)cc1Cl` (centres undefined), the TGI with XF 498 CNS, in the test with LXFL 529 NSCLC, in the test with RXF-631 renal, in the test with SNB-78 CNS and in the test on KM20L2 colon was over 100 µM throughout.

For the molecule `CCOC(=O)C1C(c2ccc(Br)cc2)N(Cc2ccccc2)C(c2ccc(Br)cc2)C(C(=O)OC)S1(=O)=O` (centres undefined), the TGI with XF 498 CNS is over 100 µM; with LXFL 529 NSCLC, over 100 µM; with SNB-78 CNS it was over 100 µM; with KM20L2 colon, over 100 µM; in the test with DLD-1 colon, over 100 µM; in the test on HOP-18 NSCLC it was 72.9 µM.

Consider `CCOC(=O)C(Cc1ccc(N=NN(C)C)cc1)NC(=O)CC1c2ccccc2-c2ccccc21` (centres undefined), for which the TGI in the test with LXFL 529 NSCLC and in the test on DLD-1 colon was over 100 µM throughout.

Turning to `Cc1cc(NC(=O)NC(=O)c2ccccc2NC(=O)CN(C)C)ccc1Oc1ncc(Br)cn1`, the TGI was over 100 µM with XF 498 CNS; over 100 µM in the test on LXFL 529 NSCLC; over 100 µM in the test with SNB-78 CNS; 34.7 µM in the test with KM20L2 colon; over 100 µM in the test with DLD-1 colon.

For the molecule `Cc1cc(-c2ccc(N=Nc3ccc4c(S(=O)(=O)O)cc(S(=O)(=O)O)c(N)c4c3O)c(C)c2)ccc1N=Nc1ccc2c(S(=O)(=O)O)cc(S(=O)(=O)O)c(N)c2c1O`, the TGI in the test with XF 498 CNS, with P388 leukemia, with SNB-78 CNS, with KM20L2 colon, with SN12K1 renal and in the test on DLD-1 colon was over 100 µM in each case. Further, the TGI in the test on HOP-18 NSCLC and in the test on P388/ADR leukemia was over 100 µM throughout. In addition, in the test with HOP-18 NSCLC, the GI50 is over 100 µM.

As for `C/C(CCN(C)C)=N/O`, the TGI in the test on XF 498 CNS is 33.6 µM; with LXFL 529 NSCLC, 4.72 µM; with SNB-78 CNS, 51.7 µM; in the test on KM20L2 colon, 22.8 µM; with DLD-1 colon, 15.8 µM; with HOP-18 NSCLC, 29.6 µM.

As to `CC(C)C(NCc1c2ccccc2[n+](C)c2ccccc12)C(=O)O` (centres undefined), the TGI in the test on XF 498 CNS was 17.8 µM; in the test with LXFL 529 NSCLC it was 14 µM; in the test with RXF-631 renal it was 17.1 µM; in the test with SNB-78 CNS it was 24.8 µM; in the test on KM20L2 colon it was 7.33 µM; in the test with DLD-1 colon it was 13.8 µM. The molecule also gave a TGI in the test with HOP-18 NSCLC of 18.1 µM.

As to `CN1C(c2ccccc2)CC(O)CC1c1ccccc1` (centres undefined), the TGI in the test with LXFL 529 NSCLC, with SNB-78 CNS, in the test with KM20L2 colon and with DLD-1 colon was over 100 µM throughout.

For `CCOC(=O)CNC(=O)c1[nH]cnc1/N=N/N(C)C`, the TGI in the test with LXFL 529 NSCLC and in the test on DLD-1 colon was over 100 µM in each case.
